From PubChem BioAssay (NCI)
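Assay format: 96-well plates, 48-hour exposure. At the GI50, growth is halved. At the TGI there is no net growth.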

Experiments:
Assay in all cases: NCI tumour cell line growth inhibition, 48 h
RXF-631 renal = system: RXF-631 renal
KM20L2 colon = system: KM20L2 colon
DLD-1 colon = system: DLD-1 colon
LXFL 529 NSCLC = system: LXFL 529 NSCLC
SNB-78 CNS = system: SNB-78 CNS
HOP-18 NSCLC = system: HOP-18 NSCLC
DMS 114 small cell lung = system: DMS 114 small cell lung
XF 498 CNS = system: XF 498 CNS
P388/ADR leukemia = system: P388/ADR leukemia
P388 leukemia = system: P388 leukemia
SN12K1 renal = system: SN12K1 renal

| SMILES | TGI (RXF-631 renal) [µM] | TGI (KM20L2 colon) [µM] | TGI (DLD-1 colon) [µM] | TGI (LXFL 529 NSCLC) [µM] | TGI (SNB-78 CNS) [µM] | TGI (HOP-18 NSCLC) [µM] | TGI (DMS 114 small cell lung) [µM] | TGI (XF 498 CNS) [µM] | GI50 (KM20L2 colon) [µM] | GI50 (DLD-1 colon) [µM] | GI50 (LXFL 529 NSCLC) [µM] | GI50 (SNB-78 CNS) [µM] | TGI (P388/ADR leukemia) [µM] | TGI (P388 leukemia) [µM] | TGI (SN12K1 renal) [µM] |
| --- | --- | --- | --- | --- | --- | --- | --- | --- | --- | --- | --- | --- | --- | --- | --- |
| COc1ccc2c(c1)OC[C@@H]1c3cc(O)c(OCc4ccccc4)cc3O[C@H]21 | > 100 | 97.2 | > 100 | 74.9 | 92.3 | > 100 | 82.6 | 68.4 | – | – | – | – | – | – | – |
| COc1ccc(C[C@H](N)C(=O)N2C[C@@H](CO)C[C@@H](n3ccc(=O)[nH]c3=O)C2)cc1 | – | > 100 | > 100 | > 100 | – | > 100 | > 100 | – | – | – | – | – | – | – | – |
| O=C(N/N=C/c1cc(Br)cc(Br)c1[O-])c1ccccc1O.O=C(N/N=C/c1cc(Br)cc(Br)c1[O-])c1ccccc1O.[Ni+2] | – | 1.85 | – | – | – | – | – | – | – | – | – | – | – | – | – |
| COc1ccc(N2C(=O)C3c4[nH]c5ccccc5c4C4CCCCC4C3C2=O)cc1 (centres undefined) | – | > 100 | > 100 | 84.9 | 12.1 | 67.7 | > 100 | – | – | – | – | – | – | – | – |
| Cc1ccc(CCC(=O)C(=O)O)s1 | > 100 | > 100 | – | > 100 | > 100 | > 100 | > 100 | > 100 | – | – | – | – | – | – | – |
| NC(CSSCC(N)Cc1ccccc1)Cc1ccccc1 (centres undefined) | – | > 100 | > 100 | > 100 | > 100 | – | > 100 | 57.2 | – | – | – | – | – | – | – |
| COC(=O)C(NC(=O)c1ccccc1)C(c1ccc(Cl)cc1)P(=O)(OC)OC (centres undefined) | – | > 100 | > 100 | > 100 | > 100 | – | – | > 100 | – | – | – | – | – | – | – |
| COC1OC2=CCC3C(=O)NC(=O)C3C2[C@H](OCc2ccccc2)C1OCc1ccccc1 (some centres undefined) | – | 5.59 | 3.71 | 3.09 | 4.12 | 6.37 | – | – | – | – | – | – | – | – | – |
| C/C=C(/C)C(=O)O[C@H]1[C@H](O)CC(c2ccc3c(c2O)C(O)=C2C(=O)C4(OC)C(O)=C(C(N)=O)C(=O)[C@H](CC(=O)c5ccccc5O)C4CC2[C@@]3(C)OC)O[C@@H]1C (some centres undefined) | – | 0.0623 | 3.85 | 0.973 | – | 3.07 | 0.0292 | – | – | – | – | – | – | – | – |
| CCCC(=O)[O-].N.N.N.N.N.[Co+3].[O-][Cl+3]([O-])([O-])[O-] | – | > 100 | > 100 | > 100 | > 100 | – | – | – | > 100 | > 100 | > 100 | > 100 | – | – | – |
| CN(C)/N=N/c1nc[nH]c1C(N)=O | – | – | – | – | – | 39.2 | 96.8 | 84.5 | – | – | – | – | > 96.5 | > 98.3 | 92.6 |
| COc1ccc(Sc2ccccc2N)cc1 | – | > 100 | > 100 | > 100 | 97.3 | > 100 | > 100 | 40 | – | – | – | – | – | – | – |
